Results reported in patent US5001134A, “Piperidines, processes of preparation and medications containing them” (Lipha, Lyonnaise Industrielle Pharmaceutique, priority 1989, dated 1991).

What was measured:
[1] = test system: genetically hypertensive rat (SHR); assay: Antihypertensive activity in the genetically hypertensive rat (SHR), oral, arterial pressure measured 3 hours later; assay type: in vivo; conditions: SHR male rats, groups of 10, 3 hours after oral treatment, read-out: Antihypertensive activity (SHR) M.A.D. (minimum dose significantly reducing the mean arterial pressure)
Experimental: The antihypertensive activity was investigated in the genetically hypertensive rat (SHR) whose arterial pressure was regularly monitored: hypertensive male rats having a particularly stable arterial pressure are grouped by 10 and treated orally with the compounds being studied Their arterial pressure is measured 3 hours later.
(§1) The results obtained by these two methods in the case of a few products of the invention and in the case of ketanserin (3-[2-[4-(4-fluorobenzoyl)-1-piperidinyl]ethyl]quinazolin-2,4-(1H,3H)-dione), taken as control, are listed in Table I.

isolated rat aorta = assay: Antagonism towards serotonin in vitro on the isolated rat aorta (serotonin-triggered contraction); conditions: contraction by serotonin 20 μM, product added 10 min after serotonin, left 15 min, minimum of 3 aortas, read-out: Isolated rat aorta antiserotonin activity IC 50
Experimental: The thoracic aorta is rapidly removed. A fragment of approximately 1 cm is cut into a spiral and then placed in a cell containing 20 ml of nutrient medium (Krebs-Henseleit) kept at 37° C. and oxygenated (95% O2, 5% CO2). The contraction is recorded using an isotonic strain gauge. After a rest of 45 min, supramaximal contractions are triggered by adding serotonin (20 μM) to the survival medium. A plateau is generally reached after 10 min of contact, the latter not exceeding 25 min. A rest of 30 min and numerous rinsings separate each contraction. The products are added 10 min after the serotonin and left for 15 min, at the end of which period the inhibition is measured. The inhibiting concentration 50 (IC 50) is determined for each compound being studied on a minimum of 3 aortas.
as §1

[2] = Toxicity, 50 lethal dose on the rat using the oral route; conditions: in vivo
Experimental: By way of illustration, the 50 lethal dose determined on the rat using the oral route, in the case of the compound described in Example 1, is 1,700 mg/kg, that is 170 times the active dose in this species.

Row | SMILES | minimal effective dose [1] [mg/kg] | IC50 (isolated rat aorta) [µM] | LD50 ([2]; oral route) [mg/kg] | selectivity ratio ([2]; oral, LD50 / active dose, read-out: 50 lethal dose as multiple of the active dose in this species)
1 | CNC(=C[N+](=O)[O-])NCCN1CCC(c2noc3cc(F)ccc23)CC1 [Example 26, N-[2-[4-(6-Fluoro-1,2-benzisoxazol-3-yl)-1-piperidinyl]ethyl]-N'-methyl-2-nitro-1,1-ethenediamine] | 5 | 0.38 |  | 
2 | CN(C)C(=NCCCN1CCC(c2noc3cc(F)ccc23)CC1)NC#N [Example 21, N'-Cyano-N,N-dimethyl-N"-[3-[4-(6-fluoro-1,2-benzisoxazol-3-yl)-1-piperidinyl]propyl]guanidine] | 2 | 0.1 |  | 
3 | CCNC(=NCCCN1CCC(c2noc3cc(F)ccc23)CC1)NC#N [Example 20, N-Cyano-N'-ethyl-N"-[3-[4-(6-fluoro-1,2-benzisoxazol-3-yl)-1-piperidinyl]propyl]guanidine] | 0.5 | 0.04 |  | 
4 | CNC(=C[N+](=O)[O-])NCCN1CCC(C(=O)c2ccc(F)cc2)CC1 [Example 24, N-[2-[4-(4-Fluorobenzoyl)-1-piperidinyl]ethyl]-N'-methyl-2-nitro-1,1-ethenediamine] | 10 | 2.9 |  | 
5 | O=C(c1ccc(F)cc1)C1CCN(CCn2c(=O)[nH]c3ccccc3c2=O)CC1 [Ketanserin, 3-[2-[4-(4-fluorobenzoyl)-1-piperidinyl]ethyl]quinazolin-2,4-(1H,3H)-dione, reference compound] | 25 | 0.15 |  | 
6 | CN=C(NC#N)NCCCN1CCC(C(=O)c2ccc(F)cc2)CC1 [Example 12, N-Cyano-N'-[3-[4-(4-fluorobenzoyl)-1-piperidinyl]propyl]-N"-methylguanidine] | 5 | 0.17 |  | 
7 | CN(C)C(=NC#N)NCCCN1CCC(C(=O)c2ccc(F)cc2)CC1 [Example 13] | 5 | 1.95 |  | 
8 | CN=C(NC#N)NCCCN1CCC(c2noc3cc(F)ccc23)CC1 [Example 19, N-Cyano-N'-[3-[4-(6-fluoro-1,2-benzisoxazol-3-yl)-1piperidinyl]propyl]-N"-methylguanidine] | 0.5 | 0.05 |  | 
9 | CN=C(NC#N)NCCN1CCC(c2noc3cc(F)ccc23)CC1 [Example 18, N-Cyano-N'-[2-[4-(6-fluoro-1,2-benzisoxazol-3-yl)-1-piperidinyl]ethyl]-N"-methylguanidine] | 2 | 0.09 |  | 
10 | CN=C(NC#N)NCCCCN1CCC(C(=O)c2ccc(F)cc2)CC1 [Example 14, N-Cyano-N'-[4-[4-(4-fluorobenzoyl)-1-piperidinyl]butyl]-N"-methylguanidine] | 10 | 0.67 |  | 
11 | CNC(=NC#N)NCCN1CCC(C(=O)c2ccc(F)cc2)CC1 [Example 1, N-Cyano-N'-[2-[4-(4-fluorobenzoyl)-1-piperidinyl]ethyl]-N"-methylguanidine] | 10 | 0.53 | 1700 | 170
12 | CN(C)C(=NCCN1CCC(C(=O)c2ccc(F)cc2)CC1)NC#N [Example 10, N'-Cyano-N,N-dimethyl-N"-[2-[4-(4-fluorobenzoyl)-1-piperidinyl]ethyl]guanidine] | 10 | 0.46 |  | 
13 | N#CNC(=N)NCCCN1CCC(c2noc3cc(F)ccc23)CC1 [Example 22, N-Cyano-N'-[3-[4-(6-fluoro-1,2-benzisoxazol-3-yl)-1-piperidinyl]propyl]guanidine] | 5 | 0.02 |  | 
